Assay results reported in patent US8802700B2 (Vertex Pharmaceuticals Incorporated, priority 2010, dated 2014).

What follows are molecules tested against T1, ΔF508-CFTR (Homo sapiens, UniProt P13569, DEL508-508) (assay: Membrane potential optical assay (FRET voltage-sensor dyes, VIPR), identification of potentiator compounds). Conditions: Table 3; assay not given.
T1 construct: expressed in transfected cells
Format: cell-based
Procedure, shortened: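 NIH3T3 mouse fibroblasts stably expressing ΔF508-CFTR, cultured 24 h at 27 °C, were loaded with FRET voltage dyes CC2-DMPE and DiSBAC2(3). Double-addition format: first addition of Cl⁻-free (gluconate) medium with or without compound; membrane-potential change read as fluorescence on VIPR II.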

T1 sequence (P13569 with tags, fused parts or gaps DEL508-508): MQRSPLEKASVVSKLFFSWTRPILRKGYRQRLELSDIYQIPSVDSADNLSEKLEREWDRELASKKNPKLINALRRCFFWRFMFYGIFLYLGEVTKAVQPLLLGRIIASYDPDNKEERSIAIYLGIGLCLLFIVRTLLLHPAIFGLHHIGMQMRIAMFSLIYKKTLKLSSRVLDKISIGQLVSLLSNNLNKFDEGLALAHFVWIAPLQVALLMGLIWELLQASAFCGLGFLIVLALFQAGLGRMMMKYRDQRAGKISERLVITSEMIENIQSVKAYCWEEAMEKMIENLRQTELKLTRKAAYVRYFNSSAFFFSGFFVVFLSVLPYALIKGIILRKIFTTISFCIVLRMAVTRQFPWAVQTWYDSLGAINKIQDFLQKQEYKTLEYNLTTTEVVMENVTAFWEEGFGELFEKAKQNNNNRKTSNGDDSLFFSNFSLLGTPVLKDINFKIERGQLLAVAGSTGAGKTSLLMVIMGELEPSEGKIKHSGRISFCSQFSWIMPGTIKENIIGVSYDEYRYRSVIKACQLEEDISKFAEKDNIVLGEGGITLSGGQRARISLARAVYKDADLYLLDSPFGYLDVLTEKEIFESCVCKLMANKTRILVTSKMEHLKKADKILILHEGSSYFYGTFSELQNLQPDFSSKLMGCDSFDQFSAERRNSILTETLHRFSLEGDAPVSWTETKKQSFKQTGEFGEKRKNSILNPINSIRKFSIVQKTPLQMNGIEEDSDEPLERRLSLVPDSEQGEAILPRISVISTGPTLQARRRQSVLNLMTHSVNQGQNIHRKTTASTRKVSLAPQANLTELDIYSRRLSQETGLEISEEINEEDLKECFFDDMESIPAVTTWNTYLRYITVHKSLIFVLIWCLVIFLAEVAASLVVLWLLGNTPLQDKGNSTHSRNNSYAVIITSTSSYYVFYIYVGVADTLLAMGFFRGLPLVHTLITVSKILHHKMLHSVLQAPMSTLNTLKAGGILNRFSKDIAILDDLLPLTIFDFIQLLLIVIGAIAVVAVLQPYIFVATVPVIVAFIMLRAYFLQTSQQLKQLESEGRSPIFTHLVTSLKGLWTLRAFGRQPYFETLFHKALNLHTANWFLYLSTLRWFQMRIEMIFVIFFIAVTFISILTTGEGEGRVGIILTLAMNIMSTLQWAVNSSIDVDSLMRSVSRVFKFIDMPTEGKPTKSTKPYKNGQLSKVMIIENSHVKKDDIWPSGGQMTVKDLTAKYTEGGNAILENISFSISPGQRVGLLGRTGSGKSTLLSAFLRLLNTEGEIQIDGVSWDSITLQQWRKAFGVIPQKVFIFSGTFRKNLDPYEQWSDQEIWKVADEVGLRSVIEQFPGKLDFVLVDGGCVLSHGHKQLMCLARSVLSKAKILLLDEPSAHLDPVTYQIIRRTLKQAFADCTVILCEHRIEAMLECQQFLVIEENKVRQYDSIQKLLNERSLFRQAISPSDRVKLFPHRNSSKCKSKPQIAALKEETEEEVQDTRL

| EC50 [µM] | Compound |
| --- | --- |
| < 10 | O=C(Nc1ccccc1-c1ccoc1)c1c[nH]c2ccccc2c1=O [Compound 123, N-[2-(3-furyl)phenyl]-4-oxo-1H-quinoline-3-carboxamide] |
| < 10 | O=C(Nc1cc(O)c2ccccc2c1)c1c[nH]c2ccccc2c1=O [Compound 551, N-(4-hydroxy-2-naphthyl)-4-oxo-1H-quinoline-3-carboxamide] |

Same assay, conditions: Table 3; assay not given; read-out: % Activity (% Efficacy, relative efficacy)

| Emax [%] | Compound |
| --- | --- |
| 25 to 100 | CC1(c2cc(F)c(NC(=O)c3cnc4ccccc4c3O)cc2O)CCCCCC1 [Compound 483, N-[2-fluoro-5-hydroxy-4-(1-methylcycloheptyl)-phenyl]-4-hydroxy-quinoline-3-carboxamide] |
| 25 to 100 | O=C(Nc1cccc(Cl)c1)c1c[nH]c2ccccc2c1=O [Compound 370, N-(3-chlorophenyl)-4-oxo-1H-quinoline-3-carboxamide] |
| < 25 | O=C(Nc1ccc(-c2ccccc2)cn1)c1c[nH]c2ccccc2c1=O [Compound 402, 4-oxo-N-(5-phenyl-2-pyridyl)-1H-quinoline-3-carboxamide] |
| 25 to 100 | O=C(Nc1ccccc1Cc1ccccc1)c1c[nH]c2ccccc2c1=O [Compound 265, N-(2-benzylphenyl)-4-oxo-1H-quinoline-3-carboxamide] |
| > 100 | Cc1cc(N2CCCC2)ccc1NC(=O)c1c[nH]c2ccccc2c1=O [Compound 615, N-(2-methyl-4-pyrrolidin-1-yl-phenyl)-4-oxo-1H-quinoline-3-carboxamide] |
| 25 to 100 | O=C(Nc1ccccc1Oc1ccc(Cl)cc1Cl)c1c[nH]c2ccccc2c1=O [Compound 245, N-[2-(2,4-dichlorophenoxy)phenyl]-4-oxo-1H-quinoline-3-carboxamide] |
| < 25 | Cc1cccc2c(=O)c(C(=O)Nc3ccc(C(C)C)cc3C(F)(F)F)c[nH]c12 [Compound 637, N-[4-isopropyl-2-(trifluoromethyl)phenyl]-8-methyl-4-oxo-1H-quinoline-3-carboxamide] |
| 25 to 100 | CC(C)(C)c1cc(C(C)(C)C)c(NC(=O)c2c[nH]c3cc(F)c(F)cc3c2=O)cc1O [Compound 672, 6,7-difluoro-N-(5-hydroxy-2,4-ditert-butyl-phenyl)-4-oxo-1H-quinoline-3-carboxamide] |
| 25 to 100 | CCc1ccc(NC(=O)c2c[nH]c3ccccc3c2=O)cc1NC(C)=O [Compound 149, N-(3-acetylamino-4-ethyl-phenyl)-4-oxo-1H-quinoline-3-carboxamide] |
| 25 to 100 | O=C(Nc1ccc(N2CCC[C@H]2CO)cc1C(F)(F)F)c1c[nH]c2ccccc2c1=O [Compound 634, (S)-N-(4-(2-(hydroxymethyl)pyrrolidin-1-yl)-2-(trifluoromethyl)phenyl)-4-oxo-1,4-dihydroquinoline-3-carboxamide] |
| 25 to 100 | Cc1ccc2[nH]cc(C(=O)Nc3cc(O)c(C(C)(C)C)cc3C(C)(C)C)c(=O)c2c1 [Compound 688, N-(5-hydroxy-2,4-ditert-butyl-phenyl)-6-methyl-4-oxo-1H-quinoline-3-carboxamide] |
| 25 to 100 | C[S+]([O-])c1ccc(-c2ccccc2NC(=O)c2c[nH]c3ccccc3c2=O)cc1 (centres unmarked) [Compound 134, N-[2-(4-methylsulfinylphenyl)phenyl]-4-oxo-1H-quinoline-3-carboxamide] |
| 25 to 100 | Cc1cccc2[nH]cc(C(=O)Nc3ccc(N4CC[C@@H](C)C4)cc3C(F)(F)F)c(=O)c12 [Compound 613, (R)-5-methyl-N-(4-(3-methylpyrrolidin-1-yl)-2-(trifluoromethyl)phenyl)-4-oxo-1,4-dihydroquinoline-3-carboxamide] |
| 25 to 100 | CCOC(=O)C(C)(C)c1ccc(NC(=O)c2c[nH]c3ccccc3c2=O)cc1 [Compound 420, 2-methyl-2-[4-[(4-oxo-1H-quinolin-3-yl)carbonylamino]phenyl]-propanoic acid ethyl ester] |
| 25 to 100 | CC(C)N1CCN(c2ccc(NC(=O)c3c[nH]c4ccccc4c3=O)c(C(F)(F)F)c2)CC1 [Compound 639, N-[4-(4-isopropylpiperazin-1-yl)-2-(trifluoromethyl)phenyl]-4-oxo-1H-quinoline-3-carboxamide] |
| 25 to 100 | O=C(Nc1ccc(N2CCCC2)cc1C(F)(F)F)c1c[nH]c2ccc(F)cc2c1=O [Compound 562, 6-fluoro-4-oxo-N-[4-pyrrolidin-1-yl-2-(trifluoromethyl)phenyl]-1H-quinoline-3-carboxamide] |
| 25 to 100 | Cc1cccc2[nH]cc(C(=O)Nc3ccc(N4CCC[C@@H]4C)nc3C(F)(F)F)c(=O)c12 [Compound 581, (S)-5-methyl-N-(6-(2-methylpyrrolidin-1-yl)-2-(trifluoromethyl)pyridin-3-yl)-4-oxo-1,4-dihydroquinoline-3-carboxamide] |
| 25 to 100 | COc1ccc(Cl)cc1-c1ccccc1NC(=O)c1c[nH]c2ccccc2c1=O [Compound 202, N-[2-(5-chloro-2-methoxy-phenyl)phenyl]-4-oxo-1H-quinoline-3-carboxamide] |
| 25 to 100 | CN(c1ccc(F)cc1)S(=O)(=O)c1ccc2[nH]cc(C(=O)Nc3cc(O)c(C(C)(C)C)cc3C(C)(C)C)c(=O)c2c1 [Compound 137, 6-[(4-fluorophenyl)-methyl-sulfamoyl]-N-(5-hydroxy-2,4-ditert-butyl-phenyl)-4-oxo-1H-quinoline-3-carboxamide] |
| 25 to 100 | CC(C)c1ccc(-c2cc3cc[nH]c3cc2NC(=O)c2c[nH]c3ccccc3c2=O)cc1 [Compound 342, N-[5-(4-isopropylphenyl)-1H-indol-6-yl]-4-oxo-1H-quinoline-3-carboxamide] |
| 25 to 100 | O=C(Nc1ccc(OC(F)(F)F)cc1Cl)c1c[nH]c2ccccc2c1=O [Compound 628, N-[2-chloro-4-(trifluoromethoxy)phenyl]-4-oxo-1H-quinoline-3-carboxamide] |
| < 25 | O=C(Nc1ccc2[nH]nnc2c1)c1c[nH]c2ccccc2c1=O [Compound 256, N-(1H-benzotriazol-5-yl)-4-oxo-1H-quinoline-3-carboxamide] |
| 25 to 100 | O=C(Nc1ccccc1-c1ccoc1)c1c[nH]c2ccccc2c1=O [Compound 123, N-[2-(3-furyl)phenyl]-4-oxo-1H-quinoline-3-carboxamide] |
| 25 to 100 | Cc1ccc(-c2ccccc2NC(=O)c2c[nH]c3ccccc3c2=O)o1 [Compound 311, N-[2-(5-methyl-2-furyl)phenyl]-4-oxo-1H-quinoline-3-carboxamide] |
| 25 to 100 | O=C(Nc1ccc(N2CCC[C@@H]2C(=O)O)cc1C(F)(F)F)c1c[nH]c2ccccc2c1=O [Compound 698, (R)-1-[4-[(4-oxo-1H-quinolin-3-yl)carbonylamino]-3-(trifluoromethyl)phenyl]pyrrolidine-2-carboxylic acid] |
| 25 to 100 | CCOc1ccccc1-c1cc(C(C)(C)C)c(O)cc1NC(=O)c1c[nH]c2ccccc2c1=O [Compound 23, N-[2-(2-ethoxyphenyl)-5-hydroxy-4-tert-butyl-phenyl]-4-oxo-1H-quinoline-3-carboxamide] |
| 25 to 100 | CC(C)(C)c1cc(C(C)(C)C)c(C(F)F)cc1NC(=O)c1c[nH]c2ccccc2c1=O [Compound 438, N-[5-(difluoromethyl)-2,4-ditert-butyl-phenyl]-4-oxo-1H-quinoline-3-carboxamide] |
| 25 to 100 | O=C(Nc1cc(O)c2ccccc2c1)c1c[nH]c2ccccc2c1=O [Compound 551, N-(4-hydroxy-2-naphthyl)-4-oxo-1H-quinoline-3-carboxamide] |
| 25 to 100 | Cc1cccc2[nH]cc(C(=O)Nc3ccc(N4CCC[C@H]4C)cc3C(F)(F)F)c(=O)c12 [Compound 697, (R)-5-methyl-N-(4-(2-methylpyrrolidin-1-yl)-2-(trifluoromethyl)phenyl)-4-oxo-1,4-dihydroquinoline-3-carboxamide] |
| 25 to 100 | O=C(Nc1ccccc1-c1ccccn1)c1c[nH]c2ccccc2c1=O [Compound 692, 4-oxo-N-[2-(2-pyridyl)phenyl]-1H-quinoline-3-carboxamide] |
